Results from patent US20230165872A1, “COMBINATION OF BCMA-DIRECTED T CELL THERAPY AND AN IMMUNOMODULATORY COMPOUND” (Juno Therapeutics, Inc., priority 2020, published 2023).

Columns and labels:
RPMI-8226 target cells [1] = assay: Acute co-culture cytokine secretion of anti-BCMA CAR T cells with RPMI-8226; format: cell-based, human
Experimental: Anti-tumor effects of anti-BCMA CAR T cells, alone and in combination with cell immunomodulatory compounds Compound A (iberdomide, (S)-3-[4-(4-morpholin-4-ylmethyl-benzyloxy)-1-oxo-1,3-dihydro-isoindol-2-yl]-piperidine-2,6-dione) or Compound B ((S)-4-(4-(4-(((2-(2,6-dioxopiperidin-3-yl)-1-oxoisoindolin-4-yl)oxy)methyl)benzyl)piperazin-1-yl)-3-fluorobenzonitrile), were assessed in two different BCMA-expressing target multiple myeloma cell lines RPMI-8226 or OPM-2. Anti-BCMA CAR+ T cells were generated as described in Example 1.
The anti-BCMA CAR-expressing T cells were incubated with target cells, RPMI 8226 (BCMA^med human multiple myeloma cell line) or OPM2 cells (BCMA^med human multiple myeloma cell line) target cells, at an E:T ratio of 1:1. The co-culture incubation with target cells was carried out in the presence of Compound A (0.01 nM, 0.1 nM, 1 nM, 10 nM, 100 nM, 1000 nM, or 10,000 nM) or Compound B (0.01 nM, 0.1 nM, 1 nM, 10 nM, 100 nM, 1000 nM, or 10,000 nM).

Ikaros = assay: Intracellular Ikaros expression in BCMA-bead stimulated anti-BCMA CAR T cells (flow cytometry, MFI); format: cell-based, human
Experimental: (§1) A BCMA-Fc fusion protein containing the extracellular domain of human BCMA and a human IgG1Fc was conjugated to beads by covalently coupling to the surface of commercially available tosyl-activated magnetic beads having a diameter of approximately […] (M-450 beads, ThermoFisher, Waltham Mass.) (see e.g. International published PCT App. No. WO2019/027850). Following incubation, anti-BCMA CAR-expressing T cells were stained with antibodies and analyzed by flow cytometry to assess intracellular levels of Ikaros and Aiolos in CD4+CAR+ or CD8+CAR+ cells, as measured by median fluorescence intensity (MFI). Median fluorescence intensity (MFI) values for Ikaros and Aiolos were normalized and calculated as a percentage relative to vehicle control.

RPMI-8226 target cells [2] = assay: Rescue: rechallenge of chronically stimulated anti-BCMA CAR T cells with RPMI-8226 in the presence of compound; format: cell-based, human; settings: Example 4: Compound A 1 or 10 nM, Compound B 0.1 or 1 nM during re-challenge
Experimental: Anti-BCMA CAR-expressing T cells, produced as described in Example 1, were stimulated with 50 μg BCMA conjugated beads (diameter about 4.5 μm from a 50 μg/ml BCMA-conjugated bead composition) substantially as described in Example 3 to induce chronic stimulation (to produce hypofunctional, exhausted T cells). After the chronic stimulation, the CAR-T cells were rechallenged with RPMI-8226 target cells (labeled with NucLightRed as described in Example 2) at a 1:1 (effector:target) ratio in the presence of (rescued) with Compound A (iberdomide, (S)-3-[4-(4-morpholin-4-ylmethyl-benzyloxy)-1-oxo-1,3-dihydro-isoindol-2-yl]-piperidine-2,6-dione) (1 nM or 10 nM), Compound B ((S)-4-(4-(4-(((2-(2,6-dioxopiperidin-3-yl)-1-oxoisoindolin-4-yl)oxy)methyl)benzyl)piperazin-1-yl)-3-fluorobenzonitrile) (0.1 nM or 1 nM), or DMSO vehicle control.
Killing activity and cytokine production were assessed as described in Example 3.
Studies were undertaken to determine whether Compound A (iberdomide, (S)-3-[4-(4-morpholin-4-ylmethyl-benzyloxy)-1-oxo-1,3-dihydro-isoindol-2-yl]-piperidine-2,6-dione) rescued anti-BCMA CAR T cell function following chronic stimulation. To directly stimulate via CAR engagement to induce chronic stimulation of cells, anti-BCMA CAR T cells were stimulated with BCMA conjugated beads (diameter about 4.5 μm from a 50 μg/ml BCMA-conjugated bead composition, generated as described in Example 9) at a ratio of T cells to beads of 1:1. The cells were then incubated at 37° C., 5% CO2 for 7 days.
Cultures were incubated at 37° C., 5% CO2, and images were taken every 2 hours over 5-7 days with an Essen IncuCyte Zoom live-cell analysis system to track NucLightRed-positive target cells.

Aiolos = assay: Intracellular Aiolos expression in BCMA-bead stimulated anti-BCMA CAR T cells (flow cytometry, MFI); format: cell-based, human; settings: CD4+CAR+ or CD8+CAR+ cells; 24 or 72 hours; lenalidomide 1000 nM, Compound A 1, 10, 100 nM, Compound B 0.1, 1, 10 nM
Experimental: as §1

PBMCs = settings: cultures of PBMCs; cited from earlier work
anti-BCMA CAR T cells = assay: Viability and count of anti-BCMA CAR T cells after 7-day chronic stimulation with BCMA-conjugated beads; format: cell-based, human
Experimental: (§2) Cryofrozen anti-BCMA CAR T cells, produced substantially as described in Example 1 and formulated at a 1:1 ratio of CD4+ and CD8^+ T cells, were thawed. To subject cells to chronic stimulation conditions, the anti-BCMA CAR+ T cells were stimulated with 50 μg BCMA conjugated beads (diameter about 4.5 μm from a 50 μg/ml BCMA-conjugated bead composition, generated as described in Example 2) at a ratio of T cells to beads of 1:1 in the presence or absence of Compound A (iberdomide, (S)-3-[4-(4-morpholin-4-ylmethyl-benzyloxy)-1-oxo-1,3-dihydro-isoindol-2-yl]-piperidine-2,6-dione) (1 nM or 10 nM), Compound B ((S)-4-(4-(4-(((2-(2,6-dioxopiperidin-3-yl)-1-oxoisoindolin-4-yl)oxy)methyl)benzyl)piperazin-1-yl)-3-fluorobenzonitrile) (0.1 nM or 1 nM), or DMSO vehicle control. The cells were then incubated at 37° C., 5% CO2 for 7 days.
At day 7, anti-BCMA CAR cells of all the samples were counted using a cellometer machine and stained for flow cytometric analysis. Cells were stained with a viability dye and analyzed by flow cytometry. Viability and count of anti-BCMA CAR T cells was increased in the presence of Compound A or Compound B.
(§3) Cryofrozen anti-BCMA CAR T cells, produced substantially as described in Example 1 and formulated at a 1:1 ratio of CD4+ and CD8+ T cells, were thawed. […] The cells were then incubated at 37° C., 5% CO2 for 7 days.
At day 7, anti-BCMA CAR cells of all the samples were counted using a cellometer machine and stained for flow cytometric analysis. Cells were stained with a viability dye and analyzed by flow cytometry.

RPMI-8226 target cells [3] = assay: Rechallenge with RPMI-8226 after concurrent compound treatment during chronic stimulation (cytolysis, cytokines); format: cell-based, human
Experimental: as §2
CAR T cells that had been stimulated for 7 days with cultured with 50 μg BCMA-coated magnetic beads concurrently in the presence of the cell immunomodulatory compound were washed free of compound and cells were debeaded. The anti-BCMA CAR T cells that had been stimulated for 7 days with BCMA-conjugated beads in the presence of the compounds were co-cultured with RPMI-8226 target cells (labeled with NucLightRed as described in Example 2) at a 1:1 (effector:target) ratio. Killing activity was monitored over 200 hours by measuring NucLightRed (NLR)-positive target cells. The total cell number of NLR-expressing RPMI targets cells was determined by normalizing cell number over time to the number of cells at the initiation of the co-culture (t=0) for each respective condition.
For cytokine measurements, cell-free supernatants were collected from the cytolytic assay described above 24 hours after plating. Cytokine levels of IFNg, IL-2, and TNFalpha (TNFα) was measured in the supernatant.
as §3
Cytolytic activity was assessed using OPM-2 and RPMI-8226 BCMA expressing target cells transduced with NucLight Red, a red fluorescent protein detectable by microscopy, to allow for measurement of target cell death. Anti-BCMA CAR T cells that had been stimulated for 7 days with BCMA-conjugated beads in the presence of the compounds were co-cultured with RPMI-8226 target cells at a 0.3:1 (effector:target) or 1:1 ratio. Cultures were incubated at 37° C., 5% CO2, and images were taken every 2 hours over 5-7 days with an Essen IncuCyte Zoom live-cell analysis system to track NucLightRed-positive target cells.
For cytokine measurements, cell-free supernatants were collected from the cytolytic assay described above 24 hours after plating. Cytokine levels were measured using IFNg, IL-2, and TNFalpha Meso Scale Discovery cytokine kit (Mesoscale) according to manufacturer instructions. The data was analyzed using GraphPad Prism to calculate absolute changes in cytokine relative to the DMSO vehicle control.

[4] = Example 3: day 7, Compound A 1 or 10 nM, Compound B 0.1 or 1 nM
[5] = Example 7: day 7, lenalidomide 1000 nM, Compound A 0.1, 1 or 10 nM, FIG. 8

Row | SMILES | concentration needed for effect on cytokine production, compared with Compound A (RPMI-8226 target cells [1]; acute co-culture) | CAR T cell cytokine production (RPMI-8226 target cells [1]; similar studies, target cell line not stated) | intracellular Ikaros expression (MFI, percentage relative to vehicle control) (Ikaros; CD4+CAR+ or CD8+CAR+ cells, 24 or 72 hours, lenalidomide 1000 nM, Compound A 1, 10, 100 nM, Compound B 0.1, 1, 10 nM) | potency in decreasing Ikaros and Aiolos expression, compared with lenalidomide (Ikaros; stimulated anti-BCMA CAR T cells) | rescue of chronically activated CAR T cells (RPMI-8226 target cells [2]) | intracellular Aiolos expression (MFI, percentage relative to vehicle control) (Aiolos) | activation of T cells (PBMCs) | loss of Aiolos and Ikaros (PBMCs) | production of IL-2 and IFN-γ (PBMCs) | count of anti-BCMA CAR T cells (anti-BCMA CAR T cells; [4]) | viability of anti-BCMA CAR T cells (anti-BCMA CAR T cells; [4]) | count of anti-BCMA CAR T cells (anti-BCMA CAR T cells; [5]) | viability of anti-BCMA CAR T cells (anti-BCMA CAR T cells; [5]) | cytolytic activity after long-term stimulation in the presence of compound (RPMI-8226 target cells [3]; Example 7: E:T 0.3:1, lenalidomide 1000 nM, Compound A 1 or 10 nM, FIG. 9A) | production of IFN-gamma (RPMI-8226 target cells [3]; Example 7: supernatant at 24 hours, relative to DMSO, FIG. 9B) | production of IL-2 (RPMI-8226 target cells [3]; Example 7: supernatant at 24 hours, relative to DMSO, FIG. 9C) | production of TNF-alpha (RPMI-8226 target cells [3]; Example 7: supernatant at 24 hours, relative to DMSO, FIG. 9D)
1 | N#Cc1ccc(N2CCN(Cc3ccc(COc4cccc5c4CN([C@H]4CCC(=O)NC4=O)C5=O)cc3)CC2)c(F)c1 [Compound B, (S)-4-(4-(4-(((2-(2,6-dioxopiperidin-3-yl)-1-oxoisoindolin-4-yl)oxy)methyl)benzyl)piperazin-1-yl)-3-fluorobenzonitrile] | enhanced effects at lower concentrations compared to Compound A | increased | concentration dependent decrease | more potent than lenalidomide | able to rescue chronically activated CAR T cells to improve functionality | concentration dependent decrease | activation of T cells | induces loss of Aiolos and Ikaros | increased production of IL-2 and IFN-γ | increased | increased | – | – | – | – | – | –
2 | Nc1cccc2c1CN(C1CCC(=O)NC1=O)C2=O (centres unmarked) [lenalidomide, reference compound] | – | – | – | – | – | – | – | – | – | – | – | increased | increased | increased cytolytic activity | increased production | increased production | increased production
